The text below walks through data of ChEMBL document CHEMBL4152365, “Discovery of DS-6930, a potent selective PPARγ modulator. Part I: Lead identification” (Bioorg Med Chem, 2018).

Each structure is given as a SMILES string.

The subject of data set [1] is Rattus norvegicus. The data set can be described thus: Toxicity in Wistar-Imamichi rat assessed as death at 30 to 300 mg/kg, po administered via gavage once daily for 28 days. Type of data set: organism-based. The note with it: in vivo, 672 h.
Data set [2] deals with Rattus norvegicus. The data set can be described thus: Toxicity in Wistar-Imamichi rat assessed as effect on hemodilution by measuring increase in heart weight at 100 mg/kg, po administered via gavage once daily for 28 days. Type of data set: organism-based. The note with it: in vivo, 672 h.
Data set [3] concerns Rattus norvegicus. The data set can be described thus: Toxicity in Wistar-Imamichi rat assessed as reduction in RBC count at 30 mg/kg, po administered via gavage once daily for 28 days relative to control. Type of data set: organism-based. Further details: scale not given: the % may be the effect or the level left. The note with it: in vivo, 672 h.
Data set [4] has as its system Rattus norvegicus. The experiment in a line: Toxicity in Wistar-Imamichi rat assessed as clinical abnormality at 30 to 300 mg/kg, po administered via gavage once daily for 28 days. It counts as organism-based. The note with it: in vivo, 672 h.
Data set [5] relates to Rattus norvegicus. The experiment in a line: Toxicity in Wistar-Imamichi rat assessed as reduction in RBC count at 30 to 300 mg/kg, po administered via gavage once daily for 28 days. Type of data set: organism-based. The note with it: in vivo, 672 h.
In data set [6] the test system is Rattus norvegicus. The experiment in a line: Glucose-lowering effect in Zucker diabetic fatty rat assessed as reduction in plasma glucose level at 3 mg/kg, po administered once daily for 14 days measured on day 14 post last dose relative to control. Type of data set: functional. Also noted: scale not given: the % may be the effect or the level left.
For data set [7], the system named is Rattus norvegicus. The experiment in a line: Toxicity in Wistar-Imamichi rat assessed as elevation in AST activity at 30 to 300 mg/kg, po administered via gavage once daily for 28 days. It counts as organism-based. Conditions: in vivo, 672 h.
Data set [8] has as its system Rattus norvegicus. The experiment in a line: Toxicity in Wistar-Imamichi rat assessed as reduction in RBC count at 300 mg/kg, po administered via gavage once daily for 28 days relative to control. Type of data set: organism-based. Further details: scale not given: the % may be the effect or the level left. Conditions: in vivo, 672 h.
Data set [9] relates to Rattus norvegicus. The data set can be described thus: Toxicity in Wistar-Imamichi rat assessed as effect on hemodilution by measuring increase in heart weight at 30 to 300 mg/kg, po administered via gavage once daily for 28 days. It counts as organism-based. Conditions: in vivo, 672 h.
Data set [10] deals with Rattus norvegicus. The data set can be described thus: Toxicity in Wistar-Imamichi rat assessed as reduction in RBC count at 100 mg/kg, po administered via gavage once daily for 28 days relative to control. It counts as organism-based. Further details: scale not given: the % may be the effect or the level left. The note with it: in vivo, 672 h.
For data set [11], the system named is Rattus norvegicus. The data set can be described thus: Toxicity in Wistar-Imamichi rat assessed as elevation in ALT activity at 30 to 300 mg/kg, po administered via gavage once daily for 28 days. Type of data set: organism-based. Conditions: in vivo, 672 h.
Data set [12] has as its system Rattus norvegicus. The data set can be described thus: Toxicity in Zucker diabetic fatty rat assessed as body weight gain at 3 mg/kg, po administered once daily for 14 days relative to control. Type of data set: organism-based. Conditions: in vivo, 336 h.

Turning to `CN(CCOc1ccc(CC2SC(=O)NC2=O)cc1)c1ccccn1` (configuration not stated) [ROSIGLITAZONE], the Activity result was “Non-Toxic” with Rattus norvegicus [1]; 24.7% in the data set with Rattus norvegicus [2]; 5.9% in the data set on Rattus norvegicus [3]; “Non-Toxic” in the data set on Rattus norvegicus [4]; “Dose-dependent effect” in the data set with Rattus norvegicus [5]; 40.3% with Rattus norvegicus [6]. The Activity result with Rattus norvegicus [7] is given as “Non-Toxic”; in the data set with Rattus norvegicus [8], 14.2%; in the data set on Rattus norvegicus [9] it was “Toxic”; in the data set on Rattus norvegicus [10] it was 8.9%; with Rattus norvegicus [11] it was “Non-Toxic”; in the data set on Rattus norvegicus [12], 12.6%.
